Experimental data from PubChem BioAssay (NCI).
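All cell lines were grown in 96-well plates and treated with compound for 48 hours. TGI: concentration producing complete growth inhibition.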

Experiments:
Test in all cases: NCI-60 cell line screen, 48 h
[1] = tested on: 786-0 renal
[2] = tested on: A498 renal
[3] = tested on: A549 NSCLC
[4] = tested on: ACHN renal
[5] = tested on: BT-549 breast
[6] = tested on: CAKI-1 renal
[7] = tested on: CCRF-CEM leukemia
[8] = tested on: COLO 205 colon
[9] = tested on: DU-145 prostate
[10] = tested on: EKVX NSCLC
[11] = tested on: HCC-2998 colon
[12] = tested on: HCT-116 colon
[13] = tested on: HCT-15 colon
[14] = tested on: HL-60(TB) leukemia
[15] = tested on: HOP-62 NSCLC
[16] = tested on: HOP-92 NSCLC
[17] = tested on: HS 578T breast
[18] = tested on: HT29 colon
[19] = tested on: IGROV1 ovarian
[20] = tested on: KM12 colon
[21] = tested on: LOX IMVI melanoma
[22] = tested on: M14 melanoma
[23] = tested on: MALME-3M melanoma
[24] = tested on: MCF7 breast
[25] = tested on: MDA-MB-231 breast
[26] = tested on: MDA-MB-435
[27] = tested on: MDA-N
[28] = tested on: MOLT-4 leukemia
[29] = tested on: NCI-H23 lung
[30] = tested on: NCI-H460 lung
[31] = tested on: NCI-H522 lung
[32] = tested on: NCI/ADR-RES ovarian
[33] = tested on: OVCAR-3 ovarian
[34] = tested on: OVCAR-4 ovarian
[35] = tested on: OVCAR-5 ovarian
[36] = tested on: OVCAR-8 ovarian
[37] = tested on: PC-3 prostate
[38] = tested on: RPMI-8226 leukemia
[39] = tested on: SF-268 CNS
[40] = tested on: SF-295 CNS
[41] = tested on: SF-539 CNS
[42] = tested on: SK-MEL-2 melanoma
[43] = tested on: SK-MEL-28 melanoma
[44] = tested on: SK-MEL-5 melanoma
[45] = tested on: SN12C renal
[46] = tested on: SNB-75 CNS
[47] = tested on: SR leukemia
[48] = tested on: SW-620 colon
[49] = tested on: T-47D breast
[50] = tested on: TK-10 renal
[51] = tested on: U251 CNS
[52] = tested on: UACC-257 melanoma
[53] = tested on: UACC-62 melanoma
[54] = tested on: UO-31 renal
[55] = tested on: K-562 leukemia
[56] = tested on: RXF 393 renal
[57] = tested on: SK-OV-3 ovarian
[58] = tested on: SNB-19 CNS

Fc1ccc(OCc2ccc3nc(-c4ccccc4)c(Cl)nc3c2)cc1
TGI [1]: 56.9 µM
TGI [2]: 50.1 µM
TGI [3]: > 100 µM
TGI [4]: 71.7 µM
TGI [5]: 85.8 µM
TGI [6]: 60.6 µM
TGI [7]: 89.8 µM
TGI [8]: > 100 µM
TGI [9]: > 100 µM
TGI [10]: > 100 µM
TGI [11]: > 100 µM
TGI [12]: > 100 µM
TGI [13]: > 100 µM
TGI [14]: > 100 µM
TGI [15]: 31.3 µM
TGI [16]: 50.1 µM
TGI [17]: 67.7 µM
TGI [18]: > 100 µM
TGI [19]: 74.3 µM
TGI [20]: > 100 µM
TGI [21]: > 100 µM
TGI [22]: > 100 µM
TGI [23]: 35.9 µM
TGI [24]: > 100 µM
TGI [25]: 47.3 µM
TGI [26]: > 100 µM
TGI [27]: > 100 µM
TGI [28]: 60 µM
TGI [29]: > 100 µM
TGI [30]: > 100 µM
TGI [31]: 24.4 µM
TGI [32]: > 100 µM
TGI [33]: > 100 µM
TGI [34]: > 100 µM
TGI [35]: > 100 µM
TGI [36]: > 100 µM
TGI [37]: > 100 µM
TGI [38]: > 100 µM
TGI [39]: > 100 µM
TGI [40]: 50.3 µM
TGI [41]: 51.8 µM
TGI [42]: > 100 µM
TGI [43]: > 100 µM
TGI [44]: > 100 µM
TGI [45]: > 100 µM
TGI [46]: 42.8 µM
TGI [47]: 40.8 µM
TGI [48]: > 100 µM
TGI [49]: > 100 µM
TGI [50]: 90.1 µM
TGI [51]: 39 µM
TGI [52]: > 100 µM
TGI [53]: > 100 µM
TGI [54]: > 100 µM

O=C(O)C(O)c1ccc(F)cc1 (stereo not given)
TGI [1]: > 100 µM
TGI [2]: > 100 µM
TGI [3]: > 100 µM
TGI [4]: > 100 µM
TGI [5]: > 100 µM
TGI [6]: > 100 µM
TGI [9]: > 100 µM
TGI [10]: > 100 µM
TGI [12]: > 100 µM
TGI [13]: > 100 µM
TGI [15]: > 100 µM
TGI [16]: > 100 µM
TGI [17]: > 100 µM
TGI [18]: > 100 µM
TGI [19]: > 100 µM
TGI [55]: > 100 µM
TGI [20]: > 100 µM
TGI [21]: > 100 µM
TGI [22]: > 100 µM
TGI [23]: > 100 µM
TGI [24]: > 100 µM
TGI [25]: > 100 µM
TGI [26]: > 100 µM
TGI [27]: > 100 µM
TGI [28]: > 100 µM
TGI [29]: > 100 µM
TGI [30]: > 100 µM
TGI [31]: > 100 µM
TGI [32]: > 100 µM
TGI [33]: > 100 µM
TGI [34]: > 100 µM
TGI [35]: > 100 µM
TGI [36]: > 100 µM
TGI [37]: > 100 µM
TGI [38]: > 100 µM
TGI [56]: > 100 µM
TGI [39]: > 100 µM
TGI [40]: > 100 µM
TGI [42]: > 100 µM
TGI [43]: > 100 µM
TGI [57]: > 100 µM
TGI [45]: > 100 µM
TGI [58]: > 100 µM
TGI [46]: > 100 µM
TGI [47]: > 100 µM
TGI [48]: > 100 µM
TGI [49]: > 100 µM
TGI [50]: > 100 µM
TGI [51]: > 100 µM
TGI [52]: > 100 µM
TGI [53]: > 100 µM
TGI [54]: > 100 µM

O=C(O)Cn1c[n+](NC(=O)Cc2ccccc2)cn1
TGI [1]: > 10 µM
TGI [2]: > 10 µM
TGI [3]: > 10 µM
TGI [4]: > 10 µM
TGI [5]: > 10 µM
TGI [6]: > 10 µM
TGI [7]: > 10 µM
TGI [8]: > 10 µM
TGI [9]: > 10 µM
TGI [10]: > 10 µM
TGI [11]: > 10 µM
TGI [12]: > 10 µM
TGI [13]: > 10 µM
TGI [15]: > 10 µM
TGI [16]: > 10 µM
TGI [17]: > 10 µM
TGI [18]: > 10 µM
TGI [19]: > 10 µM
TGI [55]: > 10 µM
TGI [20]: > 10 µM
TGI [21]: > 10 µM
TGI [22]: > 10 µM
TGI [23]: > 10 µM
TGI [24]: > 10 µM
TGI [25]: > 10 µM
TGI [26]: > 10 µM
TGI [27]: > 10 µM
TGI [28]: > 10 µM
TGI [29]: > 10 µM
TGI [30]: > 10 µM
TGI [31]: > 10 µM
TGI [32]: > 10 µM
TGI [33]: > 10 µM
TGI [34]: > 10 µM
TGI [35]: > 10 µM
TGI [36]: > 10 µM
TGI [38]: > 10 µM
TGI [39]: > 10 µM
TGI [40]: > 10 µM
TGI [41]: > 10 µM
TGI [43]: > 10 µM
TGI [44]: > 10 µM
TGI [57]: > 10 µM
TGI [45]: > 10 µM
TGI [58]: > 10 µM
TGI [46]: > 10 µM
TGI [47]: > 10 µM
TGI [48]: > 10 µM
TGI [49]: > 10 µM
TGI [50]: > 10 µM
TGI [51]: > 10 µM
TGI [52]: > 10 µM
TGI [53]: > 10 µM
TGI [54]: > 10 µM
